Measurements reported in ChEMBL document CHEMBL1124044, “4-N-hydroxy-L-2,4-diaminobutyric acid. A strong inhibitor of glutamine synthetase” (J Med Chem, 1988).

Assays:
[1] = system: Glutamine synthetase (Ovis aries); assay: Percent inhibition was measured on Sheep Brain Glutamine synthetase at 0.1 mM concentration
[2] = system: Glutamine synthetase (Glycine max); details: at 0.1 mM
[3] = system: Glutamine synthetase (Glycine max); assay: Percent inhibition was measured on Soybean Glutamine synthetase at 0.2 mM concentration
[4] = system: Glutamine synthetase (Ovis aries); assay: Percent inhibition was measured on Sheep Brain Glutamine synthetase at 0.5 mM concentration
[5] = system: Glutamine synthetase (Ovis aries); assay: Percent inhibition was measured on Sheep Brain Glutamine synthetase at 0.2 mM concentration
[6] = system: Glutamine synthetase (Glycine max); assay: Percent inhibition was measured on Soybean Glutamine synthetase at 0.5 mM concentration
[7] = system: Glutamine synthetase (Ovis aries); details: at 0.5 mM
[8] = system: Glutamine synthetase (Ovis aries); details: at 0.2 mM
[9] = system: Glutamine synthetase (Glycine max); details: at 0.2 mM
[10] = system: Glutamine synthetase (Ovis aries); assay: Percent inhibition was measured on Sheep Brain […] at 0.1 mM concentration
[11] = system: Glutamine synthetase (Glycine max); details: at 0.5 mM

SMILES | inhibition [1] | inhibition [2] | inhibition [3] | inhibition [4] | inhibition [5] | inhibition [6] | inhibition [7] | inhibition [8] | inhibition [9] | inhibition [10] | inhibition [11]
NCC(O)CCC(N)C(=O)O (configuration not stated) | 5% | 5% | 9% | 22% | 11% | 21% |  |  |  |  | 
CNO |  | 0% |  |  |  |  | 8% | 4% | 0% | 0% | 0%
